Assay results published in patent publication US9133157B2, “HIV protease inhibitors” (Merck Canada Inc., priority 2011, dated 2015).

Target: WT HIV-1 protease (Human immunodeficiency virus type 1 group M subtype B (isolate HXB2) (HIV-1), UniProt P04585)
Assay: Assay for inhibition of microbial expressed HIV protease (Procedure A, peptide substrate, HPLC fluorescence detection)
Format: biochemical
Conditions: WT HIV-1 protease 10 pM, substrate 400 micromolar, pH 5.5, 30 min preincubation, 1 hour at 30° C.; read-out: Enzyme inhibition IC50
Description: The inhibition of WT HIV-1 protease was studied using the reaction of the protease (expressed in Eschericia coli) with a peptide substrate [Val-Ser-Gln-Asn-(betanaphthyl)Ala-Pro-Ile-Val (SEQ ID NO:1)]. Compounds were tested using Procedure A. In Procedure A, the test compound was first preincubated with the enzyme in assay buffer (50 mM sodium acetate, pH 5.5, 100 mM NaCl, and 0.1% BSA) for 30 minutes at room temperature. Substrate was then added to 400 micromolar in a total volume of 80 microliters containing 10 picomolar HIV-1 protease and the reaction was incubated for 1 hour at 30° C. The reaction was quenched with the addition of 120 microliters of 10% phosphoric acid. The product formation was determined after separation of product and substrate on a Zorbax Eclipse XDB-C18 column (Agilent Technologies, Santa Clara, Calif.) connected to an Agilent 1100 high performance liquid chromatography system with fluorescence detection (excitation 270 nanometer and emission 330 nanometer).

SMILES | IC50 [nM]
COC(=O)N[C@H](C(=O)N[C@H](c1ccc([C@@H](CO)N(CCC(C)(C)C)S(=O)(=O)c2ccc(N)cn2)s1)C(F)(F)F)C(c1ccccc1)c1ccccc1 [Example 57, N-[(1S)-1-{5-[(1R)-1-{[(5-aminopyridin-2-yl)sulfonyl](3,3-dimethylbutyl)amino}-2-hydroxyethyl]thiophen-2-yl}-2,2,2-trifluoroethyl]-Nα-(methoxycarbonyl)-β-phenyl-L-phenylalaninamide] | 1.32
COC(=O)N[C@H](C(=O)N[C@H](c1ccc([C@@H](CO)N(CCC(C)(C)C)S(=O)(=O)c2cccc3[nH]ccc23)s1)C(F)(F)F)C(c1ccccc1)c1ccccc1 [Example 59, N-[(1S)-1-(5-{(1R)-1-[(3,3-dimethylbutyl)(1H-indol-4-ylsulfonyl)amino]-2-hydroxyethyl}thiophen-2-yl)-2,2,2-trifluoroethyl]-Nα-(methoxycarbonyl)-β-phenyl-L-phenylalaninamide] | 4.22
COC(=O)N[C@H](C(=O)N[C@H](c1ccc([C@@H](CO)N(CC(C)C)S(=O)(=O)c2ccc(N)cc2)s1)C(F)(F)F)C(c1ccccc1)c1ccccc1 [Example 60, N-[(1S)-1-{5-[(1R)-1-{[(4-aminophenyl)sulfonyl](2-methylpropyl)amino}-2-hydroxyethyl]thiophen-2-yl}-2,2,2-trifluoroethyy]-Nα-(methoxycarbonyl)-β-phenyl-L-phenylalaninamide] | 2.01
COC(=O)N[C@H](C(=O)N[C@@H](c1ccc([C@@H](CO)N(CC(C)C)S(=O)(=O)c2ccc(N)cc2)s1)C(F)(F)F)C(c1ccccc1)c1ccccc1 [Example 61, N-[(1R)-1-{5-[(1R)-1-{[(4-aminophenyl)sulfonyl](2-methylpropyl)amino}-2-hydroxyethyl]thiophen-2-yl}-2,2,2-trifluoroethyl]-Nα-(methoxycarbonyl)-β-phenyl-L-phenylalaninamide] | 23
CCN([C@H](CO)c1ccc([C@@H](NC(=O)[C@@H](NC(=O)OC)C(c2ccccc2)c2ccccc2)C(F)(F)F)s1)S(=O)(=O)c1ccc(N)cc1 [Example 62] | 18.5
COC(=O)N[C@H](C(=O)N[C@H](c1ccc([C@@H](CO)N(CC(C)C)S(=O)(=O)c2ccc(N)cc2)s1)C1CC1)C(c1ccccc1)c1ccccc1 [Example 63, N-[(S)-{[4(1R)-1-{[(4-aminophenyl)sulfonyl](2-methylpropyl)amino}-2-hydroxyethyl]thiophen-2-yl}(cyclopropyl)methyl]-Nα-(methoxycarbonyl)-β-phenyl-L-phenylalaninamide] | 3.98
COC(=O)N[C@H](C(=O)NC(C)(C)c1ccc(C(CO)N(CCC(C)C)S(=O)(=O)c2ccccc2)s1)C(c1ccccc1)c1ccccc1 (stereo partly drawn) [Example 64] | 6.48
COC(=O)N[C@H](C(=O)N[C@H](c1ccc([C@@H](CO)N(C(C)C)S(=O)(=O)c2ccc(CO)cc2)s1)C(F)(F)F)C(c1ccccc1)c1ccccc1 [Example 65, Nα-(methoxycarbonyl)-β-phenyl-N-[(1S)-2,2,2-trifluoro-1-(5-{(1R)-2-hydroxy-1-[{[4-(hydroxymethyl)phenyl]sulfonyl}(propan-2-yl)amino]ethyl}thiophen-2-yl)ethyl]-L-phenylalaninamide] | 0.18
COC(=O)Nc1ccc(S(=O)(=O)N(CCC(C)(C)C)[C@H](CO)c2ccc([C@@H](NC(=O)[C@@H](NC(=O)OC)C(c3ccccc3)c3ccccc3)C(F)(F)F)s2)cc1 [Example 70, N-[(1S)-1-(5-{1-[(3,3-dimethylbutyl)({4-[(methoxycarbonyl)amino]phenyl}sulfonyl)amino]-2-hydroxyethyl}thiophen-2-yl)-2,2,2-trifluoroethyl]-Nα-(methoxycarbonyl)-β-phenyl-L-phenylalaninamide] | 3.16
COC(=O)N[C@H](C(=O)N[C@H](c1ccc([C@@H](CO)N(CCC(C)(C)C)S(=O)(=O)c2ccc3nccn3c2)s1)C(F)(F)F)C(c1ccccc1)c1ccccc1 [Example 71, N-[(1S)-1-(5-{(1R)-1-[(3,3-dimethylbutyl)(imidazo[1,2-a]pyridin-6-ylsulfonyl)amino]-2-hydroxyethyl}thiophen-2-yl)-2,2,2-trifluoroethyl]-Nα-(methoxycarbonyl)-β-phenyl-L-phenylalaninamide] | 6.64
COC(=O)N[C@H](C(=O)N[C@H](c1ccc([C@@H](CO)N(CCC(C)(C)C)S(=O)(=O)c2ccc3ncccc3c2)s1)C(F)(F)F)C(c1ccccc1)c1ccccc1 [Example 73, Methyl [(2S)-1-{[(1S)-1-(5-{(1R)-1-[(3,3-dimethylbutyl)(quinolin-6-ylsulfonyl)amino]-2-hydroxyethyl}thiophen-2-yl)-2,2,2-trifluoroethyl]amino}-1-oxo-3,3-diphenylpropan-2-yl]carbamate] | 2.03
COC(=O)N[C@H](C(=O)N[C@H](c1ccc([C@@H](CO)N(CCC(C)(C)C)S(=O)(=O)c2ccc3nc[nH]c3c2)s1)C(F)(F)F)C(c1ccccc1)c1ccccc1 [Example 74, N-[(1S)-1-(5-{(1R)-1-[(1H-benzimidazol-6-ylsulfonyl)(3,3-dimethylbutyl)amino]-2-hydroxyethyl}thiophen-2-yl)-2,2,2-trifluoroethyl]-Nα-(methoxycarbonyl)-β-phenyl-L-phenylalaninamide] | 0.45
COC(=O)N[C@H](C(=O)N[C@@H](C)c1ccc([C@@H](CO)N(C(C)C)S(=O)(=O)c2ccc(N)cc2)s1)C(c1ccccc1)c1ccccc1 [Example 75, N-[(1S)-1-{5-[(1R)-1-{[(4-aminophenyl)sulfonyl](propan-2-yl)amino}-2-hydroxyethyl]thiophen-2-yl}ethyl]-Nα-(methoxycarbonyl)-β-phenyl-L-phenylalaninamide] | 7.89
COC(=O)N[C@H](C(=O)N[C@@H](C)c1ccc([C@@H](CO)N(CC(C)C)S(=O)(=O)c2ccc(N)cc2)s1)C(c1ccccc1)c1ccccc1 [Example 76, N-[(1S)-1-{5-[(1R)-1-{[(4-aminophenyl)sulfonyl](2-methylpropyl)amino}-2-hydroxyethyl]thiophen-2-yl}ethyl]-Nα-(methoxycarbonyl)-β-phenyl-L-phenylalaninamide] | 11.8
COC(=O)N[C@H](C(=O)N[C@H](c1ccc([C@@H](CO)N(C(C)C)S(=O)(=O)c2ccc(N)cc2)s1)C(F)(F)F)C(c1ccccc1)c1ccccc1 [Example 77, N-[(1S)-1-{5-[(1R)-1-{[(4-aminophenyl)sulfonyl](propan-2-yl)amino}-2-hydroxyethyl]thiophen-2-yl}-2,2,2-trifluoroethyl]-Nα-(methoxycarbonyl)-β-phenyl-L-phenylalaninamide] | 23
COC(=O)N[C@H](C(=O)N[C@H](c1ccc([C@@H](CO)N(C(C)C)S(=O)(=O)c2ccc3[nH]ccc3c2)s1)C(F)(F)F)C(c1ccccc1)c1ccccc1 [Example 78, Nα-(methoxycarbonyl)-β-phenyl-N-[(1S)-2,2,2-trifluoro-1-(5-{(1R)-2-hydroxy-1-[(1H-indol-5-ylsulfonyl)(propan-2-yl)amino]ethyl}thiophen-2-yl)ethyl]-L-phenylalaninamide] | 66.1
COC(=O)N[C@H](C(=O)N[C@H](c1ccc([C@@H](CO)N(C(C)C)S(=O)(=O)c2ccc3cc[nH]c3c2)s1)C(F)(F)F)C(c1ccccc1)c1ccccc1 [Example 79, Nα-(methoxycarbonyl)-β-phenyl-N-[(1S)-2,2,2-trifluoro-1-(5-{(1R)-2-hydroxy-1-[(1H-indol-6-ylsulfonyl)(propan-2-yl)amino]ethyl}thiophen-2-yl)ethyl]-L-phenylalaninamide] | 12.5
COC(=O)N[C@H](C(=O)N[C@H](c1ccc([C@@H](CO)N(C(C)C)S(=O)(=O)c2ccc(N)c(F)c2)s1)C(F)(F)F)C(c1ccccc1)c1ccccc1 [Example 80, N-[(1S)-1-{5-[(1R)-1-{[(4-amino-3-fluorophenyl)sulfonyl](propan-2-yl)amino}-2-hydroxyethyl]thiophen-2-yl}-2,2,2-trifluoroethyl]-Nα-(methoxycarbonyl)-β-phenyl-L-phenylalaninamide] | 30.5
COC(=O)N[C@H](C(=O)N[C@H](c1ccc([C@@H](CO)N(C(C)C)S(=O)(=O)c2ccc3cn[nH]c3c2)s1)C(F)(F)F)C(c1ccccc1)c1ccccc1 [Example 81, Nα-(methoxycarbonyl)-β-phenyl-N-[(1S)-2,2,2-trifluoro-1-(5-{(1R)-2-hydroxy-1-[(1H-indazol-6-ylsulfonyl)(propan-2-yl)amino]ethyl}thiophen-2-yl)ethyl]-L-phenylalaninamide] | 74.1
COC(=O)N[C@H](C(=O)N[C@H](c1ccc([C@@H](CO)N(CCC(C)C)S(=O)(=O)c2ccc(N)cc2)s1)C(F)(F)F)C(c1ccccc1)c1ccccc1 [Example 83, N-[(1S)-1-{5-[(1R)-1-{[(4-aminophenyl)sulfonyl](3-methylbutyl)amino}-2-hydroxyethyl]thiophen-2-yl}-2,2,2-trifluoroethyl]-Nα-(methoxycarbonyl)-β-phenyl-L-phenylalaninamide] | 0.3
COC(=O)N[C@H](C(=O)N[C@H](c1ccc([C@@H](CO)N(CC2CC(F)(F)C2)S(=O)(=O)c2ccc(N)cc2)s1)C(F)(F)F)C(c1ccccc1)c1ccccc1 [Example 84, N-[(1S)-1-{5-[(1R)-1-{[(4-aminophenyl)sulfonyl][(3,3-difluorocyclobutyl)methyl]amino}-2-hydroxyethyl]thiophen-2-yl}-2,2,2-trifluoroethyl]-Nα-(methoxycarbonyl)-β-phenyl-L-phenylalaninamide] | 0.75
